The values that follow come from US10259712B2, “Method of stabilizing compounds in water, water compositions thereby, and articles containing said water compositions” (priority 2015, dated 2019).

Each structure is given as a SMILES string. Like-named read-outs stand apart in the source and are kept apart here.

Series [1] is described as follows: Accelerated ageing of chlorine dioxide in aqueous carriers, 75 days at 50° C. The class given is physicochemical. The protocol: A series of dilutions were set up and aged for 75 days at 50° C., (approximately two years of stability of this solution) that creates chlorine dioxide. A solution of chlorine dioxide at a concentration of 0.4 ppm was separately added to dioxytetrahydride gas-infused water and a second sample in tap water. The samples were aged for 75 days at 50° C. Prior to testing the concentration of chlorine dioxide of each sample, a control of chlorine dioxide at a concentration of 0.4 ppm in water was prepared. The concentration of chlorine dioxide measured in the two samples after aging, was 0.4 ppm for the dioxytetrahydride gas-infused water and 0.2 ppm for tap water.
The same protocol was performed on 0.2 ppm concentration of chlorine dioxide and the test results were 0.2 ppm for the dioxytetrahydride gas-infused water and 0.0 ppm in tap water.

For series [2] the following is noted: initial 50 ppm. The source says:
Peroxide test strips supplied by Indigo® Instruments, Part #33815-P100 (referred as “peroxide test strips” or “test strip” herein) were used to determine the amount of hydrogen peroxide in either distilled water or in water infused with dioxytetrahydride gas (referred as “dioxytetrahydride gas-infused water” or “ultra-pure polarized water” herein). Test Strips are capable of measuring peroxide concentrations between 1 and 100 ppm (parts per million). A peroxide test strip was first submerged into 3% water solution of hydrogen peroxide obtained from a drugstore for home use.
A peroxide test strip was submerged into a clear PET-1 bottle (0.5 liter) of distilled water produced by Crystal Springs and another clear PET-1 bottle (0.5 liter) of dioxytetrahydride gas-infused water manufactured by AquaNew, LLC, Sarasota, Fla., respectively. The water produced by AquaNew is highly purified resulting from at least six (6) stages of treatment to obtain on or about 0.3 ppm of Total Dissolved Solids (pharmaceutical-grade water). […] Ten (10) drops of peroxide were added into each sample bottle and a test strip was dipped into each bottle and each bottle was immediately recapped. […] Both bottles with closures were left on a shelf in open light conditions under climate controlled conditions with no direct sunlight.
After two weeks, a test strip was dipped into each bottle and the bottle was immediately recapped. […] The two bottles with closures were placed back onto the shelf.
After four (4) months, another test strip was dipped into each bottle and the bottles were immediately recapped.

For series [3] the following is noted: 58° C. As to the method: Continuous experiments on the relative stabilization of hydrogen peroxide with different aqueous carriers, that is, types of water, including dioxytetrahydride gas-infused water, were carried out.
Very low concentrations of hydrogen peroxide (1.2 weight %) was added to the various aqueous carriers and measured for percent absorption by potassium permanganate titration.
The samples were tested on day 1, 20, 27 and 34. The tests were accelerated in aging when the temperature of each water sample was maintained at 58° C., approximating close to two years of stabilization.

Setting [4] is: in dioxytetrahydride gas-infused water, throughout the 34 days, initial 1.2 weight %.

`[O][Cl+][O-]` [chlorine dioxide]: the “concentration of chlorine dioxide after aging” value in series [1] (in dioxytetrahydride gas-infused water, initial 0.2 ppm) is on record as 0.2 ppm; in series [1] (in dioxytetrahydride gas-infused water, initial 0.4 ppm), 0.4 ppm; in series [1] (in tap water, initial 0.2 ppm), 0.0 ppm; in series [1] (in tap water, initial 0.4 ppm), 0.2 ppm.
With `OO` [hydrogen peroxide], the peroxide concentration is recorded as 50 ppm in series [2] (in dioxytetrahydride gas-infused water, after four (4) months); 50 ppm in series [2] (in dioxytetrahydride gas-infused water, after two weeks, clear PET-1 bottle on shelf in open light); 30 ppm in series [2] (in distilled water, after four (4) months); 30 ppm in series [2] (in distilled water, after two weeks, clear PET-1 bottle on shelf in open light). Also, the hydrogen peroxide concentration in series [3] (setting [4]) is 1.2%; in series [3] (in tap water, day 20, initial 1.2%), 0.4%; in series [3] (in tap water, day 34, initial 1.2%), “below 0.2%”. For the same compound, the percent absorption in series [3] (setting [4]) is recorded as around 100%.
